Data as given in publication PMC5218480 (PLoS ONE, 2017).

Tested on: MV-4-11 cells
Experiment: Gene expression microarray analysis (Affymetrix PrimeView) and GSEA
Format: cell-based, human
Design: RFU PODN (11730768_x_at) / Fold change /veh PODN (11730768_x_at) / RFU LINC00158 (11744669_a_at) / Fold change /veh LINC00158 (11744669_a_at) / RFU DUSP10 (11751237_a_at) / Fold change /veh DUSP10 (11751237_a_at) / RFU ID3 (11757404_x_at) / Fold change /veh ID3 (11757404_x_at) / RFU PLEKHG5 (11737974_s_at) / Fold change /veh PLEKHG5 (11737974_s_at) / RFU LRRC4B (11730491_at) / Fold change /veh LRRC4B (11730491_at) / RFU GIMAP4 (11747438_a_at) / Fold change /veh GIMAP4 (11747438_a_at) / RFU KRT8 (11758183_x_at) / Fold change /veh KRT8 (11758183_x_at) / RFU CNN1 (11734310_a_at) / Fold change /veh CNN1 (11734310_a_at) / RFU VPS37D (11726825_at) / Fold change /veh VPS37D (11726825_at) / RFU C10orf10 (11716522_x_at) / Fold change /veh C10orf10 (11716522_x_at) / RFU KIR2DL2 /// KIR2DL4 /// KIR2DL5A /// KIR2DL5B /// KIR2DS1 /// KIR2DS2 /// KIR2DS3 /// KIR2DS4 /// KIR3DL3 /// KIR3DL3 /// KIR3DS1 (11738374_at) / Fold change /veh KIR2DL2 /// KIR2DL4 /// KIR2DL5A /// KIR2DL5B /// KIR2DS1 /// KIR2DS2 /// KIR2DS3 /// KIR2DS4 /// KIR3DL3 /// KIR3DL3 /// KIR3DS1 (11738374_at) / RFU C1QL1 (11718748_at) / Fold change /veh C1QL1 (11718748_at) / RFU TMPRSS4 (11747572_a_at) / Fold change /veh TMPRSS4 (11747572_a_at) / RFU HAMP (11756126_x_at) / Fold change /veh HAMP (11756126_x_at) / RFU RNFT2 (11725882_a_at) / Fold change /veh RNFT2 (11725882_a_at) / RFU NR4A2 (11747474_a_at) / Fold change /veh NR4A2 (11747474_a_at) / RFU ABCC12 (11746883_a_at) / Fold change /veh ABCC12 (11746883_a_at) / RFU TMEM136 (11760407_x_at) / Fold change /veh TMEM136 (11760407_x_at) / RFU CLDN22 /// WWC2 (11732394_at) / Fold change /veh CLDN22 /// WWC2 (11732394_at) / RFU HLA-DPB1 (11760878_x_at) / Fold change /veh HLA-DPB1 (11760878_x_at) / RFU SPINT1 (11716480_a_at) / Fold change /veh SPINT1 (11716480_a_at) / RFU GAP43 (11754022_s_at) / Fold change /veh GAP43 (11754022_s_at) / RFU A4GNT (11735810_at) / Fold change /veh A4GNT (11735810_at) / RFU PRB3 (11715151_x_at) / Fold change /veh PRB3 (11715151_x_at) / RFU TUBB4B (11761932_at) / Fold change /veh TUBB4B (11761932_at) / RFU CAPN14 (11732068_a_at) / Fold change /veh CAPN14 (11732068_a_at) / RFU TMCC2 (11721928_a_at) / Fold change /veh TMCC2 (11721928_a_at) / RFU IRGQ (11745062_a_at) / Fold change /veh IRGQ (11745062_a_at) / RFU FAM174B (11720279_a_at) / Fold change /veh FAM174B (11720279_a_at) / RFU TMPRSS4 (11748680_a_at) / Fold change /veh TMPRSS4 (11748680_a_at) / RFU FAM212B (11763350_a_at) / Fold change /veh FAM212B (11763350_a_at) / RFU PLEKHG5 (11743358_a_at) / Fold change /veh PLEKHG5 (11743358_a_at) / RFU ZSCAN30 (11745921_a_at) / Fold change /veh ZSCAN30 (11745921_a_at) / RFU CMKLR1 (11741424_a_at) / Fold change /veh CMKLR1 (11741424_a_at) / RFU LOC101060620 /// MAPK8IP1 (11723275_at) / Fold change /veh LOC101060620 /// MAPK8IP1 (11723275_at) / RFU SPTSSB (11747773_x_at) / Fold change /veh SPTSSB (11747773_x_at) / RFU PRSS12 (11739890_at) / Fold change /veh PRSS12 (11739890_at) / RFU BIN1 (11741810_x_at) / Fold change /veh BIN1 (11741810_x_at) / RFU WNT11 (11732464_a_at) / Fold change /veh WNT11 (11732464_a_at) / RFU C10orf10 (11716521_a_at) / Fold change /veh C10orf10 (11716521_a_at) / RFU C5orf56 (11738089_at) / Fold change /veh C5orf56 (11738089_at) / RFU CYB561 (11721691_x_at) / Fold change /veh CYB561 (11721691_x_at) / RFU ANKRD19P (11752326_a_at) / Fold change /veh ANKRD19P (11752326_a_at) / RFU OR2T12 /// OR2T33 /// OR2T8 (11738714_s_at) / Fold change /veh OR2T12 /// OR2T33 /// OR2T8 (11738714_s_at) / RFU VCAN (11748164_a_at) / Fold change /veh VCAN (11748164_a_at) / RFU JSRP1 (11732532_at) / Fold change /veh JSRP1 (11732532_at) / RFU KRTAP10-11 (11738290_x_at) / Fold change /veh KRTAP10-11 (11738290_x_at) / RFU MYO3A (11730013_a_at) / Fold change /veh MYO3A (11730013_a_at) / RFU EBF3 (11725865_a_at) / Fold change /veh EBF3 (11725865_a_at) / RFU CAMK2N1 (11719241_x_at) / Fold change /veh CAMK2N1 (11719241_x_at) / RFU C5orf56 (11738088_a_at) / Fold change /veh C5orf56 (11738088_a_at) / RFU OLFML3 (11715873_a_at) / Fold change /veh OLFML3 (11715873_a_at) / RFU LOC100653217 /// NTM (11731650_a_at) / Fold change /veh LOC100653217 /// NTM (11731650_a_at) / RFU MAPK11 (11762145_a_at) / Fold change /veh MAPK11 (11762145_a_at) / RFU FIZ1 (11724087_x_at) / Fold change /veh FIZ1 (11724087_x_at) / RFU OASL (11726364_x_at) / Fold change /veh OASL (11726364_x_at) / RFU SOX15 (11748057_x_at) / Fold change /veh SOX15 (11748057_x_at) / RFU CD79A (11719716_a_at) / Fold change /veh CD79A (11719716_a_at) / RFU HIST1H1D (11736915_at) / Fold change /veh HIST1H1D (11736915_at) / RFU CASKIN2 (11723855_a_at) / Fold change /veh CASKIN2 (11723855_a_at) / RFU LOC730098 (11760151_x_at) / Fold change /veh LOC730098 (11760151_x_at) / RFU OR4N2 (11742367_at) / Fold change /veh OR4N2 (11742367_at) / RFU PRRT2 (11749266_a_at) / Fold change /veh PRRT2 (11749266_a_at) / RFU SNX32 (11753110_a_at) / Fold change /veh SNX32 (11753110_a_at) / RFU CDHR5 (11726645_a_at) / Fold change /veh CDHR5 (11726645_a_at) / RFU RCAN1 (11760418_a_at) / Fold change /veh RCAN1 (11760418_a_at) / RFU FAM167A (11723789_a_at) / Fold change /veh FAM167A (11723789_a_at) / RFU FAM26E (11764081_at) / Fold change /veh FAM26E (11764081_at) / RFU ISYNA1 (11749810_s_at) / Fold change /veh ISYNA1 (11749810_s_at) / RFU ACY1 (11761880_at) / Fold change /veh ACY1 (11761880_at) / RFU 11764098_at / Fold change /veh 11764098_at / RFU SAMD14 (11745864_x_at) / Fold change /veh SAMD14 (11745864_x_at) / RFU NPB (11741838_a_at) / Fold change /veh NPB (11741838_a_at) / RFU TMPRSS6 (11731388_a_at) / Fold change /veh TMPRSS6 (11731388_a_at) / RFU KRTAP10-2 (11738614_at) / Fold change /veh KRTAP10-2 (11738614_at) / RFU ARHGAP8 /// PRR5-ARHGAP8 (11727945_x_at) / Fold change /veh ARHGAP8 /// PRR5-ARHGAP8 (11727945_x_at) / RFU KRTAP5-7 /// NADSYN1 (11734609_at) / Fold change /veh KRTAP5-7 /// NADSYN1 (11734609_at) / RFU RASL12 (11751679_a_at) / Fold change /veh RASL12 (11751679_a_at) / RFU CDKN2B (11736163_a_at) / Fold change /veh CDKN2B (11736163_a_at) / RFU PRF1 (11729649_at) / Fold change /veh PRF1 (11729649_at) / RFU, ZNF638 /// ZNF638-IT1 / Fold change vs veh, ZNF638 /// ZNF638-IT1 / RFU, PANK3 / Fold change vs veh, PANK3 / RFU, SH3YL1 / Fold change vs veh, SH3YL1 / RFU, ZEB2 / Fold change vs veh, ZEB2 / RFU, NRIP1 / Fold change vs veh, NRIP1 / RFU, PTTG1IP / Fold change vs veh, PTTG1IP / RFU, CAPN2 / Fold change vs veh, CAPN2 / RFU, MED14 / Fold change vs veh, MED14 / RFU, SNORA58 / Fold change vs veh, SNORA58 / RFU, C1orf63 / Fold change vs veh, C1orf63 / RFU, LRRFIP1 / Fold change vs veh, LRRFIP1 / RFU, NDUFAF7 / Fold change vs veh, NDUFAF7 / RFU, SLC12A2 / Fold change vs veh, SLC12A2 / RFU, IBTK / Fold change vs veh, IBTK / RFU, ESF1 / Fold change vs veh, ESF1 / Fold change vs veh, TMEM50B / RFU, TAOK1 / Fold change vs veh, TAOK1 / RFU, ACBD3 / Fold change vs veh, ACBD3 / RFU, TMA16 / Fold change vs veh, TMA16 / RFU, RWDD3 / Fold change vs veh, RWDD3 / RFU, BCAT1 / Fold change vs veh, BCAT1 / RFU, EDEM3 / Fold change vs veh, EDEM3 / RFU, TMEM33 / Fold change vs veh, TMEM33 / RFU, WDR75 / Fold change vs veh, WDR75 / RFU, AHCTF1 / Fold change vs veh, AHCTF1 / RFU, TFRC / Fold change vs veh, TFRC / RFU, ZDHHC17 / Fold change vs veh, ZDHHC17 / RFU, NOM1 / Fold change vs veh, NOM1 / RFU, ARL8B / Fold change vs veh, ARL8B / RFU, ZBTB11 / Fold change vs veh, ZBTB11 / RFU, TAMM41 / Fold change vs veh, TAMM41 / RFU, KIAA1704 /// LOC100996395 / Fold change vs veh, KIAA1704 /// LOC100996395 / RFU, ING1 / Fold change vs veh, ING1 / RFU, TRMT61B / Fold change vs veh, TRMT61B / RFU, FUBP3 / Fold change vs veh, FUBP3 / RFU, TP53 / Fold change vs veh, TP53 / RFU, TNKS2 / Fold change vs veh, TNKS2 / RFU, ZFP14 / Fold change vs veh, ZFP14 / RFU, ACTR2 / Fold change vs veh, ACTR2 / RFU, PPP3R1 / Fold change vs veh, PPP3R1 / RFU, PIK3R1 / Fold change vs veh, PIK3R1 / RFU, HNRNPA1 / Fold change vs veh, HNRNPA1 / RFU, RNF170 / Fold change vs veh, RNF170 / RFU, ZNF28 / Fold change vs veh, ZNF28 / RFU, RNGTT / Fold change vs veh, RNGTT / RFU, OGT / Fold change vs veh, OGT / RFU, BRD1 / Fold change vs veh, BRD1 / RFU, MARS / Fold change vs veh, MARS / RFU, ZNF655 / Fold change vs veh, ZNF655 / RFU, FAHD1 / Fold change vs veh, FAHD1 / RFU, BDP1 / Fold change vs veh, BDP1 / RFU, LRRCC1 / Fold change vs veh, LRRCC1 / RFU, ARID1A / Fold change vs veh, ARID1A / RFU, ZNF146 / Fold change vs veh, ZNF146 / RFU, ZNF330 / Fold change vs veh, ZNF330 / RFU, GPN3 / Fold change vs veh, GPN3 / RFU, C9orf123 / Fold change vs veh, C9orf123 / RFU, N4BP2L2 / Fold change vs veh, N4BP2L2 / RFU, ARFIP1 / Fold change vs veh, ARFIP1 / RFU, FAM179B / Fold change vs veh, FAM179B / RFU, BCL10 / Fold change vs veh, BCL10 / RFU, UHRF1BP1L / Fold change vs veh, UHRF1BP1L / RFU, BET1 / Fold change vs veh, BET1 / RFU, CNOT2 / Fold change vs veh, CNOT2 / RFU, ZNF268 / Fold change vs veh, ZNF268 / Fold change vs veh, ZNF507 / RFU, DGCR2 / Fold change vs veh, DGCR2 / RFU, WDSUB1 / Fold change vs veh, WDSUB1 / Fold change vs veh, HSP90B1 /// MIR3652 / RFU, ADSS / Fold change vs veh, ADSS / RFU, GK / Fold change vs veh, GK / RFU, ZNF148 / Fold change vs veh, ZNF148 / RFU, TAF9 / Fold change vs veh, TAF9 / RFU, SLC1A5 / Fold change vs veh, SLC1A5 / RFU, SLMO2 / Fold change vs veh, SLMO2 / RFU, ABCC4 / Fold change vs veh, ABCC4 / RFU, LOC101060439 /// RAP1B / Fold change vs veh, LOC101060439 /// RAP1B / RFU, RFX7 / Fold change vs veh, RFX7 / RFU, GTPBP10 / Fold change vs veh, GTPBP10 / RFU, CNEP1R1 / Fold change vs veh, CNEP1R1 / RFU, BIVM-ERCC5 /// ERCC5 / Fold change vs veh, BIVM-ERCC5 /// ERCC5 / RFU, ILF3 / Fold change vs veh, ILF3 / RFU 11762660_at / Fold change /veh 11762660_at / RFU VCAN (11757783_s_at) / Fold change /veh VCAN (11757783_s_at) / RFU DDX43 (11728927_at) / Fold change /veh DDX43 (11728927_at) / RFU KRT8 (11758188_x_at) / Fold change /veh KRT8 (11758188_x_at) / RFU NKD1 (11759106_at) / Fold change /veh NKD1 (11759106_at) / RFU SRD5A1 (11742802_a_at) / Fold change /veh SRD5A1 (11742802_a_at) / RFU TPSAB1 /// TPSB2 (11721975_s_at) / Fold change /veh TPSAB1 /// TPSB2 (11721975_s_at) / RFU GSTM3 (11746129_a_at) / Fold change /veh GSTM3 (11746129_a_at) / RFU IL23R (11737362_x_at) / Fold change /veh IL23R (11737362_x_at) / RFU TMEM51 (11727254_a_at) / Fold change /veh TMEM51 (11727254_a_at) / RFU PIWIL2 (11732686_x_at) / Fold change /veh PIWIL2 (11732686_x_at) / RFU ORM1 (11744905_x_at) / Fold change /veh ORM1 (11744905_x_at) / RFU CCDC152 (11743942_at) / Fold change /veh CCDC152 (11743942_at) / RFU ECM1 (11717891_a_at) / Fold change /veh ECM1 (11717891_a_at) / RFU IL23R (11748794_a_at) / Fold change /veh IL23R (11748794_a_at) / RFU TNFAIP8L3 (11732012_x_at) / Fold change /veh TNFAIP8L3 (11732012_x_at) / RFU MBOAT4 (11741988_at) / Fold change /veh MBOAT4 (11741988_at) / RFU 11764193_at / Fold change /veh 11764193_at / RFU TMEM53 (11763286_at) / Fold change /veh TMEM53 (11763286_at) / RFU MAGEB2 (11727129_at) / Fold change /veh MAGEB2 (11727129_at) / RFU TMEM200A (11744735_a_at) / Fold change /veh TMEM200A (11744735_a_at) / RFU CCDC152 (11751479_a_at) / Fold change /veh CCDC152 (11751479_a_at) / RFU FAM211A (11726209_a_at) / Fold change /veh FAM211A (11726209_a_at) / RFU RGS16 (11746705_a_at) / Fold change /veh RGS16 (11746705_a_at) / RFU VCAN (11755009_s_at) / Fold change /veh VCAN (11755009_s_at) / RFU RHOB (11743442_s_at) / Fold change /veh RHOB (11743442_s_at) / RFU RGS16 (11720943_a_at) / Fold change /veh RGS16 (11720943_a_at) / RFU RGS16 (11720944_at) / Fold change /veh RGS16 (11720944_at) / RFU, VPS4B / Fold change vs veh, VPS4B / RFU, CREB1 / Fold change vs veh, CREB1 / RFU, DNAJC13 / Fold change vs veh, DNAJC13 / RFU, GNAQ / Fold change vs veh, GNAQ / RFU, CDK5R1 / Fold change vs veh, CDK5R1 / RFU, ZRANB3 / Fold change vs veh, ZRANB3 / RFU, CUL4A / Fold change vs veh, CUL4A / RFU, CCNY / Fold change vs veh, CCNY / RFU, UFL1 / Fold change vs veh, UFL1 / RFU, COG3 / Fold change vs veh, COG3 / RFU, DIAPH2 / Fold change vs veh, DIAPH2 / RFU, SKA2 / Fold change vs veh, SKA2 / RFU, AFF3 / Fold change vs veh, AFF3 / RFU, LMF1 / Fold change vs veh, LMF1 / RFU, IPO11 / Fold change vs veh, IPO11 / RFU, DFFB / Fold change vs veh, DFFB / RFU, FOXP1 / Fold change vs veh, FOXP1 / RFU, CARD8 / Fold change vs veh, CARD8 / RFU, STRN3 / Fold change vs veh, STRN3 / RFU, ADK / Fold change vs veh, ADK / RFU, RASSF2 / Fold change vs veh, RASSF2 / RFU, WIPF1 / Fold change vs veh, WIPF1 / RFU, LARP1B / Fold change vs veh, LARP1B / RFU, RASA1 / Fold change vs veh, RASA1 / RFU, RB1 / Fold change vs veh, RB1 / RFU, PPFIA1 / Fold change vs veh, PPFIA1 / RFU, MAT2A / Fold change vs veh, MAT2A / RFU, CCT5 / Fold change vs veh, CCT5 / RFU, WDR92 / Fold change vs veh, WDR92 / RFU, CUX1 / Fold change vs veh, CUX1 / RFU, TTC7A / Fold change vs veh, TTC7A / RFU, TMEM135 / Fold change vs veh, TMEM135 / RFU, DEPTOR / Fold change vs veh, DEPTOR / RFU, CPM / Fold change vs veh, CPM / RFU, DNAJB6 / Fold change vs veh, DNAJB6 / RFU, CACNA2D3 / Fold change vs veh, CACNA2D3 / RFU, DTX4 / Fold change vs veh, DTX4 / RFU, TFCP2 / Fold change vs veh, TFCP2 / RFU, GMCL1 /// GMCL1P1 / Fold change vs veh, GMCL1 /// GMCL1P1 / RFU, AEBP2 / Fold change vs veh, AEBP2 / RFU, SNHG1 /// SNORD22 /// SNORD25 /// SNORD26 /// SNORD27 /// SNORD28 /// SNORD29 /// SNORD31 / Fold change vs veh, SNHG1 /// SNORD22 /// SNORD25 /// SNORD26 /// SNORD27 /// SNORD28 /// SNORD29 /// SNORD31 / Fold change (Aza/veh), C12orf56 (ProbeSet 11735607_a_at) / Fold change (ACY-1035/veh), C12orf56 (ProbeSet 11735607_a_at) / Fold change (Aza/veh), FGFR1OP (ProbeSet 11751329_s_at) / Fold change (ACY-1035/veh), FGFR1OP (ProbeSet 11751329_s_at) / Fold change (Aza/veh), VPS36 (ProbeSet 11739960_a_at) / Fold change (ACY-1035/veh), VPS36 (ProbeSet 11739960_a_at) / RFU SYPL1 (11715823_x_at) / Fold change /veh SYPL1 (11715823_x_at) / RFU IGFBP7 (11715501_s_at) / Fold change /veh IGFBP7 (11715501_s_at) / RFU REEP3 (11722064_at) / Fold change /veh REEP3 (11722064_at) / RFU IGLL1 (11728026_x_at) / Fold change /veh IGLL1 (11728026_x_at): dose or concentration left out as unconfirmed
Details: ProbeSet 11764057_s_at; LIST B

Q: Which “RFU, C1orf63” value does the source give for `Nc1ncn([C@@H]2O[C@H](CO)[C@@H](O)[C@H]2O)c(=O)n1` [azacitidine] here?
A: 124.54 RFU
